Tests used:
[1] = test system: oxazolone-induced atopic dermatitis mouse models; assay: Suppressive effect on auricular hypertrophy in oxazolone-induced atopic dermatitis mouse model; type: in vivo, BALB/c male mice; conditions: 30 mg/kg orally twice a day
Method: (§1) The guanidine derivative (I) or the pharmacologically acceptable salt thereof was evaluated for its exertion of a therapeutic effect on atopic dermatitis, one type of allergic disease, in an in vivo experimental system using oxazolone-induced atopic dermatitis mouse models in accordance with the method described in the literature (Plos One, Vol. 8, No. 7, e6614). Specifically, the evaluation was conducted by verifying the suppressive effect of the compound on auricular hypertrophy by using, as an index, the thickness of the auricle increased with the progression of symptoms in oxazolone-induced atopic dermatitis models.
Seven-week-old BALB/c male mice (Charles River Laboratories Japan, Inc.) were preliminarily bred and then used at the age of 8 weeks. […]
The thickness of the auricle before oxazolone administration (before induction) at the date of induction and the thickness of the auricle at post-induction day 28 were measured using a digital micrometer (Mitsutoyo Corp.), and the change therebetween (the thickness of the auricle at post-induction day 28—the thickness of the auricle before induction) was used as an index for drug efficacy evaluation. […]

[2] = test system: imiquimod-induced psoriasis mouse models; assay: Suppressive effect on auricular hypertrophy in imiquimod-induced psoriasis mouse model; type: in vivo, BALB/c male mice; conditions: for change in the thickness of the auricle (increase): post-induction days 4 to 7, post-induction day 8 vs before induction, vehicle group 198 μm; for change in the thickness of the auricle compared to the vehicle administration group (in words): P<0.05
Method: as §1, with “psoriasis,” for “atopic dermatitis,”, “autoimmune” for “allergic”, “imiquimod-induced psoriasis” for “oxazolone-induced atopic dermatitis”, “(The Journal of Dermatological Science, 2014,” for “(Plos One,”, “76,” for “8,”, “2, p. 96-103).” for “7, e6614).”
Seven-week-old BALB/c male mice (Charles River Laboratories Japan, Inc.) were preliminarily bred and then used at the age of 8 weeks. To induce psoriasis-like symptoms, 5 mg/ear of Beselna Cream 5% was applied (imiquimod dose: 0.25 mg/body/day) to both the ears of each mouse once a day for 8 days from the date of initial administration of imiquimod (hereinafter, referred to as post-induction day 0) to post-induction day 7. A dosing vehicle was prepared by adding Tween 20 to a 0.5% (w/v) aqueous methylcellulose solution to attain a final concentration of 0.025% (v/v). A test compound was suspended in the dosing vehicle to prepare a drug solution. The drug solution was orally administered (dosing volume: 10 mL/kg) twice a day (a.m. and p.m.) for 4 days from post-induction days 4 to 7. The test compound used was the compound of Example 2, and groups given the compound of Example 2 were designated as Example 2 compound administration groups. A group given only the dosing vehicle in the same way as above was established as a vehicle administration group.
The thickness of the auricle before imiquimod administration (before induction) at the date of induction and the thickness of the auricle at post-induction day 8 were measured using a digital micrometer (Mitsutoyo Corp.), and the change therebetween (the thickness of the auricle at post-induction day 8—the thickness of the auricle before induction) was used as an index for drug efficacy evaluation. Statistical analysis was carried out using statistical analysis software EXSAS (ver. 7.6). As a result of studying homoscedasticity among the groups by the Bartlett's test, the variance was homogeneous. Therefore, the parametric Dunnett test (two-tailed) was carried out. As for the drug dependence of the drug efficacy of the compound of Example 2 on auricular hypertrophy, as a result of studying homoscedasticity between the vehicle group and each compound administration group by the Bartlett's test, the variance was homogeneous. Therefore, the Williams test (two-tailed) was carried out. P<0.05 was confirmed as significant difference.
The ordinate of the drawing depicts the change in the thickness of the auricle (μm), and the abscissa depicts each administration group. The term “Compound of Example 2” depicts the Example 2 compound administration groups.

With `Cl.N/C(=N\S(=O)(=O)c1ccccc1)NCc1cnc(-c2ccc(Cl)cc2)c(-c2ccc(Cl)cc2)c1` [Compound of Example 2, N-(amino(((5,6-bis(4-chlorophenyl)pyridin-3-yl)methyl)amino)methylene)benzenesulfonamide Hydrochloride] the “change in the thickness of the auricle (increase)” value (shortened to “change … (increase)”) ([1]; post-induction days 21 to 27, post-induction day 28 vs before induction, vehicle group 515 μm) was 419 μm, the “change in the thickness of the auricle compared to the vehicle administration group (in words)” value (from here on “change in the thickness … (in words)”) ([1]; t test, P<0.05) was “statistically significantly decreased” and the “change … (increase)” value ([2]; 7.5 mg/kg orally twice a day) was 179 μm. The “change … (increase)” value ([2]; 15 mg/kg orally twice a day) was 131 μm, the “change in the thickness … (in words)” value ([2]; 15 mg/kg orally twice a day) was “significantly decreased” and the “change … (increase)” value ([2]; 30 mg/kg orally twice a day) was 118 μm. For the same compound, the “change in the thickness … (in words)” value ([2]; 30 mg/kg orally twice a day) was “significantly decreased”.
